Data on 14 compounds can be found in patent US20230257385A1, “SALT AND SOLID FORMS OF TABERNANTHALOG” (priority 2021, published 2023).

The nature of series [1]: Suspension equilibration of sorbate salt at 20 and 40° C. (Example 10, Experiments 3, 4, 9). The series is classed as physicochemical. Conditions: for Observations (t = 1 d @ 40° C.) / Observations (t = 10 d @ 40° C.): sorbate salt Form A in 5 vol solvent; for Observations (t = 1 d @ 40° C.) / Observations (t = 10 d @ 40° C.) / Observations (t = 0 @ 40° C.) / XRPD (IPC, 6 d, wet) / XRPD (post oven dried): one solvent per sample; for Observations (t = 0 @ 40° C.): sorbate salt Form A, ca. 50 mg in 5 vol solvent; for XRPD (IPC, 6 d, wet): moist pellet after 6 d; for XRPD (post oven dried): pellet after oven drying. The method, then:
The purpose of this panel is to determine if Form A evolves into a supra-ordinate form. The companion panel at 40° C. set-point is in place to detect enantiotropic behaviour via different relative proportions in different solvents. XRPD data of the moist pellets obtained from the suspension equilibration study at 20° C.
The relevant solvent (5 vol) was added to the appropriate vial and the suspensions were stirred and warmed to the predetermined temperature with stirring. […]

Series [2] is described as follows: Dynamic vapour sorption (DVS) of selected salts (Example 8). It is filed as physicochemical. The method, then: DVS: The moisture sorption properties of the feed API were analyzed by DVS Intrinsic instrument (Surface Measurement System). Approximately 20-50 mg of API was weighed on an aluminum pan and loaded into the instrument equilibrated at 25° C. The sample was allowed to equilibrate under dry atmosphere (0% relative humidity) for 60 minutes before increasing the humidity from 0% to 30% at 5% step increment and from 30% to 90% at 10% step increment. A desorption cycle was also applied from 90% to 30% (10% step) and from 30% to 0% (5% decrement). A rate of change in mass per time unit (dm/dt) of 0.002%/min was set as the equilibrium parameter. Kinetic and isotherm graphs were calculated.

[3] abbreviates: suspension equilibration at 40° C.

For the compound `CC=CC=CC(=O)O.COc1ccc2c3c([nH]c2c1)CCN(C)CC3` [Experiment 4-Sample G], in series [1], the “Observations (t = 1 d @ 40° C.)” value is reported as “Suspension”, the “Observations (t = 10 d @ 40° C.)” value is given as “Suspension” and the “Observations (t = 0 @ 40° C.)” value is listed as “Suspension”. In series [1] (setting [3]), the “XRPD (IPC, 6 d, wet)” value is reported as “Form A” and the “XRPD (post oven dried)” value is listed as “Form A”.

As to `C/C=C/C=C/C(=O)O.COc1ccc2c3c([nH]c2c1)CCN(C)CC3` [Experiment 4-Sample H], in series [1], the “Observations (t = 1 d @ 40° C.)” value is “Suspension”, the “Observations (t = 10 d @ 40° C.)” value was “Suspension” and the “Observations (t = 0 @ 40° C.)” value is recorded as “Suspension”. In addition, in series [1] (setting [3]), the “XRPD (IPC, 6 d, wet)” value is recorded as “Pattern #3” and the “XRPD (post oven dried)” value was “Form A”.

`CC=CC=CC(=O)O.COc1ccc2c3c([nH]c2c1)CCN(C)CC3` [Experiment 4-Sample I]: in series [1], the “Observations (t = 1 d @ 40° C.)” value is “Suspension”, the “Observations (t = 10 d @ 40° C.)” value is “Suspension” and the “Observations (t = 0 @ 40° C.)” value is listed as “Suspension”. Besides, in series [1] (setting [3]), the “XRPD (IPC, 6 d, wet)” value is recorded as “Form A” and the “XRPD (post oven dried)” value is given as “Form A”.

Turning to `CC=CC=CC(=O)O.COc1ccc2c3c([nH]c2c1)CCN(C)CC3` [Experiment 4-Sample J], in series [1], the “Observations (t = 1 d @ 40° C.)” value is given as “Suspension”, the “Observations (t = 10 d @ 40° C.)” value is on record as “Suspension” and the “Observations (t = 0 @ 40° C.)” value is recorded as “Suspension”. Further, in series [1] (setting [3]), the “XRPD (IPC, 6 d, wet)” value is recorded as “Form A” and the “XRPD (post oven dried)” value was “Form A”.

`CC=CC=CC(=O)O.COc1ccc2c3c([nH]c2c1)CCN(C)CC3` [Experiment 4-Sample K]: in series [1], the “Observations (t = 1 d @ 40° C.)” value was “Suspension”, the “Observations (t = 10 d @ 40° C.)” value is “Suspension” and the “Observations (t = 0 @ 40° C.)” value is reported as “Suspension”. Moreover, in series [1] (setting [3]), the “XRPD (IPC, 6 d, wet)” value is on record as “Form A” and the “XRPD (post oven dried)” value is “Form A”.

`CC=CC=CC(=O)O.COc1ccc2c3c([nH]c2c1)CCN(C)CC3` [Experiment 4-Sample L]: in series [1], the “Observations (t = 1 d @ 40° C.)” value was “Suspension”, the “Observations (t = 10 d @ 40° C.)” value was “Suspension” and the “Observations (t = 0 @ 40° C.)” value is reported as “Suspension”. Also, in series [1] (setting [3]), the “XRPD (IPC, 6 d, wet)” value is “Form A” and the “XRPD (post oven dried)” value is reported as “Form A”.

Regarding `C/C=C/C=C/C(=O)O.COc1ccc2c3c([nH]c2c1)CCN(C)CC3` [Experiment 4-Sample M], in series [1], the “Observations (t = 1 d @ 40° C.)” value is given as “Suspension”, the “Observations (t = 10 d @ 40° C.)” value is on record as “Suspension” and the “Observations (t = 0 @ 40° C.)” value was “Suspension”. For the same compound, in series [1] (setting [3]), the “XRPD (IPC, 6 d, wet)” value was “Form A” and the “XRPD (post oven dried)” value was “Form A”.

Take `CC=CC=CC(=O)O.COc1ccc2c3c([nH]c2c1)CCN(C)CC3` [Experiment 4-Sample N]: in series [1], the “Observations (t = 1 d @ 40° C.)” value is on record as “Suspension”, the “Observations (t = 10 d @ 40° C.)” value is given as “Suspension” and the “Observations (t = 0 @ 40° C.)” value is “Suspension”. Further, in series [1] (setting [3]), the “XRPD (IPC, 6 d, wet)” value was “Form A” and the “XRPD (post oven dried)” value is “Form A”.

As to `C/C=C/C=C/C(=O)O.COc1ccc2c3c([nH]c2c1)CCN(C)CC3` [Experiment 4-Sample O], in series [1], the “Observations (t = 1 d @ 40° C.)” value is listed as “Suspension”, the “Observations (t = 10 d @ 40° C.)” value is reported as “Suspension” and the “Observations (t = 0 @ 40° C.)” value is given as “Suspension”.

For the compound `C/C=C/C=C/C(=O)O.COc1ccc2c3c([nH]c2c1)CCN(C)CC3` [Experiment 4-Sample P], in series [1], the “Observations (t = 1 d @ 40° C.)” value is given as “Suspension”, the “Observations (t = 10 d @ 40° C.)” value is reported as “Suspension” and the “Observations (t = 0 @ 40° C.)” value is listed as “Suspension”. For the same compound, in series [1] (setting [3]), the “XRPD (IPC, 6 d, wet)” value is recorded as “Form A” and the “XRPD (post oven dried)” value is on record as “Form A”.

Take `C/C=C/C=C/C(=O)O.COc1ccc2c3c([nH]c2c1)CCN(C)CC3` [Experiment 4-Sample Q]: in series [1], the “Observations (t = 1 d @ 40° C.)” value is “Suspension”, the “Observations (t = 10 d @ 40° C.)” value was “Suspension” and the “Observations (t = 0 @ 40° C.)” value is listed as “Suspension”. In addition, in series [1] (setting [3]), the “XRPD (IPC, 6 d, wet)” value is recorded as “Form A” and the “XRPD (post oven dried)” value was “Form A”.

As for `C/C=C/C=C/C(=O)O.COc1ccc2c3c([nH]c2c1)CCN(C)CC3` [Experiment 4-Sample R], in series [1], the “Observations (t = 1 d @ 40° C.)” value was “Suspension”, the “Observations (t = 10 d @ 40° C.)” value is on record as “Suspension” and the “Observations (t = 0 @ 40° C.)” value was “Suspension”. Moreover, in series [1] (setting [3]), the “XRPD (IPC, 6 d, wet)” value is “Pattern #4” and the “XRPD (post oven dried)” value is “Form A”.

As to `CC=CC=CC(=O)O.COc1ccc2c3c([nH]c2c1)CCN(C)CC3` [Experiment 9-Sample C], in series [1] (Experiment 9, suspension equilibration at 40° C., filter dried), the “XRPD (post Filter dried)” value was “Form A”. Further, the “XRPD (IPC, 5 d, wet)” value in series [1] (Experiment 9, suspension equilibration at 40° C., targets Pattern #3, #4, #5) is given as “Form A”.

Consider `COc1ccc2c3c([nH]c2c1)CCN(C)CC3.O=C(O)c1ccccc1` [Tabernanthalog• Benzoate], for which the “DVS 0 to 90 to 0% RH (dm/dt <0.002%), mass change” value (“DVS 0 to 90 to 0% RH … mass change” below) in series [2] (desorption, 0.0% RH) is −0.037%; in series [2] (desorption, 5.0% RH), −0.034%; in series [2] (desorption, 10.0% RH), −0.032%; in series [2] (desorption, 15.0% RH), −0.032%; in series [2] (desorption, 20.0% RH), −0.029%; in series [2] (desorption, 25.0% RH), −0.028%. In addition, the “DVS 0 to 90 to 0% RH … mass change” value is recorded as −0.023% in series [2] (desorption, 30.0% RH); −0.018% in series [2] (desorption, 40.0% RH); −0.014% in series [2] (desorption, 50.0% RH); −0.001% in series [2] (desorption, 60.0% RH); 0.034% in series [2] (desorption, 70.0% RH); 0.063% in series [2] (desorption, 80.0% RH). For the same compound, the “DVS 0 to 90 to 0% RH … mass change” value is reported as 0.118% in series [2] (desorption, 90.0% RH); 0.00% in series [2] (sorption, 0.0% RH); −0.001% in series [2] (sorption, 5.0% RH); 0.002% in series [2] (sorption, 10.0% RH); −0.002% in series [2] (sorption, 15.0% RH); −0.003% in series [2] (sorption, 20.0% RH). Besides, the “DVS 0 to 90 to 0% RH … mass change” value in series [2] (sorption, 25.0% RH) was −0.002%; in series [2] (sorption, 30.0% RH), 0.002%; in series [2] (sorption, 40.0% RH), 0.002%; in series [2] (sorption, 50.0% RH) it was 0.006%; in series [2] (sorption, 60.0% RH), 0.009%; in series [2] (sorption, 70.0% RH) it was 0.009%. Moreover, the “DVS 0 to 90 to 0% RH … mass change” value in series [2] (sorption, 80.0% RH) worked out at 0.046%; in series [2] (sorption, 90.0% RH), 0.118%.
